Results from ChEMBL document CHEMBL5726774, “Triterpenoids with HIV maturation inhibitory activity” (2019).

How the values were obtained:
[1] = (§1) HIV Cell Culture Assay: MT-2 cells and 293T cells were obtained from the NIH AIDS Research and Reference Reagent Program. MT-2 cells were propagated in RPMI 1640 media supplemented with 10% heat-inactivated fetal bovine serum, […]. The 293T cells were propagated in DMEM media supplemented with 10% heat-inactivated fetal bovine serum (FBS), 100 units/mL penicillin G and 100 μg/mL streptomycin. The proviral DNA clone of NL4-3 was obtained from the NIH AIDS Research and Reference Reagent Program. A recombinant NL4-3 virus, in which a section of the nef gene from NL4-3 was replaced with the Renilla luciferase gene, was used as a reference virus. In addition, residue Gag P373 was converted to P373S. Briefly, the recombinant virus was prepared by transfection of the altered proviral clone of NL4-3. Transfections were performed in 293T cells using LipofectAMINE PLUS from Invitrogen (Carlsbad, Calif.), according to manufacturer's instruction. The virus was titered in MT-2 cells using luciferase enzyme activity as a marker. Luciferase was quantitated using the Dual Luciferase kit from Promega (Madison, Wis.), with modifications to the manufacturer's protocol. The diluted Passive Lysis solution was pre-mixed with the re-suspended Luciferase Assay Reagent and the re-suspended Stop & Glo Substrate (2:1:1 ratio). Fifty (50) μL of the mixture was added to each aspirated well on assay plates and luciferase activity was measured immediately on a Wallac TriLux (Perkin-Elmer). Antiviral activities of inhibitors toward the recombinant virus were quantified by measuring luciferase activity in cells infected for 4-5 days with NLRluc recombinants in the presence serial dilutions of the inhibitor.; assay type: cell-based
[2] = as §1; assay type: cell-based; remark: listed apart in the source

| Compound | EC50 [1] | EC50 [2] |
| --- | --- | --- |
| C=C(C)[C@@H]1CC[C@]2(NCCC(O)(C3CC3)C3CC3)CC[C@]3(C)[C@H](CC[C@@H]4[C@@]5(C)CC=C(C6=CC[C@](CF)(C(=O)OCc7ccccc7)CC6)C(C)(C)[C@@H]5CC[C@]43C)[C@@H]12 | < 50 nM | > 50 nM |
| C=C(C)[C@@H]1CC[C@]2(NCCN3CCC(S(C)(=O)=O)CC3)CC[C@]3(C)[C@H](CC[C@@H]4[C@@]5(C)CC=C(C6=CCC(F)(OC=O)CC6)C(C)(C)[C@@H]5CC[C@]43C)[C@@H]12 (some centres not stated) | 4 nM |  |
| C=C(C)[C@@H]1CC[C@]2(NCCN3CCS(=O)(=O)CC(C)C3)CC[C@]3(C)[C@H](CC[C@@H]4[C@@]5(C)CC=C(C6=CC[C@@](CF)(OC=O)CC6)C(C)(C)[C@@H]5CC[C@]43C)[C@@H]12 (some centres not stated) | < 50 nM | > 50 nM |
| C=C(C)[C@@H]1CC[C@]2(NCCN3CCS(=O)(=O)CC3)CC[C@]3(C)[C@H](CC[C@@H]4[C@@]5(C)CC=C(C6=CCC(C)(OC=O)CC6)C(C)(C)[C@@H]5CC[C@]43C)[C@@H]12 (some centres not stated) | 2 nM |  |
| C=C(C)[C@@H]1CC[C@]2(NCCC3(O)COC3)CC[C@]3(C)[C@H](CC[C@@H]4[C@@]5(C)CC=C(C6=CC[C@@](CF)(C(=O)O)CC6)C(C)(C)[C@@H]5CC[C@]43C)[C@@H]12 | < 50 nM | > 50 nM |
| C=C(C)[C@@H]1CC[C@]2(NCCN3CCS(=O)(=O)CC(C)C3)CC[C@]3(C)[C@H](CC[C@@H]4[C@@]5(C)CC=C(C6=CC[C@](CF)(OC=O)CC6)C(C)(C)[C@@H]5CC[C@]43C)[C@@H]12 (some centres not stated) | < 50 nM | > 50 nM |
| C=C(C)[C@@H]1CC[C@]2(NCC[C@]3(O)CC[C@H](S(C)(=O)=O)CC3)CC[C@]3(C)[C@H](CC[C@@H]4[C@@]5(C)CC=C(C6=CC[C@](CF)(C(=O)O)CC6)C(C)(C)[C@@H]5CC[C@]43C)[C@@H]12 | < 50 nM | > 50 nM |
| C=C(C)[C@@H]1CC[C@]2(NCCN3CC(C)S(=O)(=O)C(C)C3)CC[C@]3(C)[C@H](CC[C@@H]4[C@@]5(C)CC=C(C6=CC[C@@](CF)(OC=O)CC6)C(C)(C)[C@@H]5CC[C@]43C)[C@@H]12 (some centres not stated) | < 50 nM | > 50 nM |
| C=C(C)[C@@H]1CC[C@]2(NCC[C@]3(O)CC[C@@H](S(C)(=O)=O)CC3)CC[C@]3(C)[C@H](CC[C@@H]4[C@@]5(C)CC=C(C6=CC[C@@](CF)(C(=O)O)CC6)C(C)(C)[C@@H]5CC[C@]43C)[C@@H]12 | < 50 nM | > 50 nM |
| C=C(C)[C@@H]1CC[C@]2(NCCC3(O)COC3)CC[C@]3(C)[C@H](CC[C@@H]4[C@@]5(C)CC=C(C6=CC[C@](CF)(C(=O)O)CC6)C(C)(C)[C@@H]5CC[C@]43C)[C@@H]12 | < 50 nM | > 50 nM |
| C=C(C)[C@@H]1CC[C@]2(NCCN3CC(C)S(=O)(=O)C(C)C3)CC[C@]3(C)[C@H](CC[C@@H]4[C@@]5(C)CC=C(C6=CC[C@](CF)(OC=O)CC6)C(C)(C)[C@@H]5CC[C@]43C)[C@@H]12 (some centres not stated) | < 50 nM | > 50 nM |
| C=C(C)[C@@H]1CC[C@]2(NCCN3CCS(=O)(=O)CC3)CC[C@]3(C)[C@H](CC[C@@H]4[C@@]5(C)CC=C(C6=CC[C@](CF)(OC=O)CC6)C(C)(C)[C@@H]5CC[C@]43C)[C@@H]12 | 2 nM | 780 nM |
| C=C(C)[C@@H]1CC[C@]2(NCCN3CCS(=O)(=O)CC3)CC[C@]3(C)[C@H](CC[C@@H]4[C@@]5(C)CC=C(C6=CC[C@@](CF)(OC=O)CC6)C(C)(C)[C@@H]5CC[C@]43C)[C@@H]12 | 3 nM | 170 nM |
| C=C(C)[C@@H]1CC[C@]2(NCCN3CCS(=O)(=O)CC3)CC[C@]3(C)[C@H](CC[C@@H]4[C@@]5(C)CC=C(C6=CCC(CF)(OC=O)CC6)C(C)(C)[C@@H]5CC[C@]43C)[C@@H]12 (some centres not stated) | 2 nM | 210 nM |
| C=C(C)[C@@H]1CC[C@]2(NCCN3CCS(=O)(=O)CC3C(=O)OCC)CC[C@]3(C)[C@H](CC[C@@H]4[C@@]5(C)CC=C(C6=CC[C@@](CF)(C(=O)O)CC6)C(C)(C)[C@@H]5CC[C@]43C)[C@@H]12 (some centres not stated) | < 50 nM | < 50 nM |
| CC(C)[C@@H]1CC[C@]2(NCCN3CCS(=O)(=O)CC3)CC[C@]3(C)[C@H](CC[C@@H]4[C@@]5(C)CC=C(C6CCC(CF)(C(=O)O)CC6)C(C)(C)[C@@H]5CC[C@]43C)[C@@H]12 (some centres not stated) | < 50 nM | > 50 nM |
| C=C(C)[C@@H]1CC[C@]2(NC(CN3CCS(=O)(=O)CC3)C(F)(F)F)CC[C@]3(C)[C@H](CC[C@@H]4[C@@]5(C)CC=C(C6=CC[C@](CF)(C(=O)O)CC6)C(C)(C)[C@@H]5CC[C@]43C)[C@@H]12 (some centres not stated) | > 50 nM | > 50 nM |
